Results from patent US11008337B2, “Chiral diaryl macrocycles as modulators of protein kinases” (Turning Point Therapeutics, Inc., priority 2015, dated 2021).

How the values were obtained:
Format in all cases: cell-based
[1] = molecular target: T1, CD74-ROS1 Ba/F3 (Homo sapiens, UniProt P08922); test: Cell proliferation assay, CD74-ROS1 Ba/F3 stable cell line (CellTiter-Glo); settings: Ba/F3-CD74-ROS1 wild type cells, 72 hours compound incubation; read-out: Cell Proliferation IC50 CD74-ROS1 Ba/F3
T1 construct: fused on or other part: P04233 (HLA class II histocompatibility antigen gamma chain)
From the text: Creation of CD74-ROS1 and EML4-ALK Ba/F3 Stable Cell Lines and Cell Proliferation Assays.
The CD74-ROS1 wild-type gene and EML4-ALK wild-type gene (variant 1) were synthesized at GenScript and cloned into pCDH-CMV-MCS-EF1-Puro plasmid (System Biosciences, Inc). Ba/F3-CD74-ROS1 and Ba/F3-EML4-ALK wild type cell lines were generated by infecting Ba/F3 cells with lentivirus containing CD74-ROS1 wide-type and EML4-ALK wild type. Stable cell lines were selected by puromycin treatment, followed by IL-3 withdrawal. 3000 cells were seeded in 384 well white plate overnight before compound treatment. Cell proliferation was measured using CellTiter-Glo luciferase-based ATP detection assay (Promega) following the manufactures's protocol after 72 hours of various concentration of compound incubation. IC50 determinations were performed using GraphPad Prism software (GraphPad, Inc., San Diego, Calif.).

[2] = molecular target: T2, EML4-ALK Ba/F3 (Homo sapiens, UniProt Q9UM73); test: Cell proliferation assay, EML4-ALK Ba/F3 stable cell line (CellTiter-Glo); settings: Ba/F3-EML4-ALK wild type (variant 1) cells, 72 hours compound incubation; read-out: Cell Proliferation IC50 EML4-ALK Ba/F3
T2 construct: fused on or other part: Q9HC35 (Echinoderm microtubule-associated protein-like 4)
In short: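 Ba/F3 cells were lentivirally transduced with wild-type CD74-ROS1 or EML4-ALK (variant 1), selected with puromycin and made IL-3-independent. Cells (3000/well) were seeded overnight and then treated with the compounds at various concentrations for 72 h. Proliferation was read by CellTiter-Glo ATP luminescence, and IC50 values were fitted.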

[3] = tested on: T cell lymphoma Karpas-299 cell line (harboring endogenous NPM-ALK fusion gene); test: Cell proliferation assay, Karpas-299 cells (CellTiter-Glo); settings: Homo sapiens, 72 hours incubation
Procedure: Cell Proliferation Assays.
Colorectal cell lines KM 12 (harboring endogenous TPM3-TRKA fusion gene) cells were cultured in DMEM medium, supplemented with 10% fetal bovine serum and 100 U/mL of penicillin/streptomycin. 5000 cells were seeded in 384 well white plate for 24 hours before compounds treatment. Cell proliferation was measured using CellTiter-Glo luciferase-based ATP detection assay (Promega) following the manufactures's protocol after 72 hours incubation. IC50 determinations were performed using GraphPad Prism software (GraphPad, Inc., San Diego, Calif.). Alternatively, essential thrombocythemia cell line SET-2 cells (harboring endogenous JAK2 […] point mutation) or T cell lymphoma Karpas-299 cell line (harboring endogenous NPM-ALK fusion gene) were cultured in RPMI medium, supplemented with 10% fetal bovine serum and 100 U/mL of penicillin/streptomycin. 5000 cells were seeded in 384 well white plate for 24 hours before compounds treatment. Cell proliferation was measured using CellTiter-Glo luciferase-based ATP detection assay (Promega) following the manufactures's protocol after 72 hours incubation. IC50 determinations were performed using GraphPad Prism software (GraphPad, Inc., San Diego, Calif.).

[4] = tested on: Colorectal cell lines KM 12 (harboring endogenous TPM3-TRKA fusion gene); test: Cell proliferation assay, KM12 cells (CellTiter-Glo); settings: Homo sapiens, 72 hours incubation
[5] = tested on: essential thrombocythemia cell line SET-2 cells (harboring endogenous JAK2 point mutation); test: Cell proliferation assay, SET-2 cells (CellTiter-Glo); settings: Homo sapiens, 72 hours incubation, read-out: Cell Proliferation IC50 SET2
In short: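 Karpas-299 (NPM-ALK) or SET-2 (JAK2 […]) cells in RPMI with 10% FBS, seeded 24 h before compound addition. Viability read by CellTiter-Glo ATP luminescence after 72 h incubation; IC50 derived from dose–response curves.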

T1 sequence (P08922 whole entry, change not shown, the tested form may be a part): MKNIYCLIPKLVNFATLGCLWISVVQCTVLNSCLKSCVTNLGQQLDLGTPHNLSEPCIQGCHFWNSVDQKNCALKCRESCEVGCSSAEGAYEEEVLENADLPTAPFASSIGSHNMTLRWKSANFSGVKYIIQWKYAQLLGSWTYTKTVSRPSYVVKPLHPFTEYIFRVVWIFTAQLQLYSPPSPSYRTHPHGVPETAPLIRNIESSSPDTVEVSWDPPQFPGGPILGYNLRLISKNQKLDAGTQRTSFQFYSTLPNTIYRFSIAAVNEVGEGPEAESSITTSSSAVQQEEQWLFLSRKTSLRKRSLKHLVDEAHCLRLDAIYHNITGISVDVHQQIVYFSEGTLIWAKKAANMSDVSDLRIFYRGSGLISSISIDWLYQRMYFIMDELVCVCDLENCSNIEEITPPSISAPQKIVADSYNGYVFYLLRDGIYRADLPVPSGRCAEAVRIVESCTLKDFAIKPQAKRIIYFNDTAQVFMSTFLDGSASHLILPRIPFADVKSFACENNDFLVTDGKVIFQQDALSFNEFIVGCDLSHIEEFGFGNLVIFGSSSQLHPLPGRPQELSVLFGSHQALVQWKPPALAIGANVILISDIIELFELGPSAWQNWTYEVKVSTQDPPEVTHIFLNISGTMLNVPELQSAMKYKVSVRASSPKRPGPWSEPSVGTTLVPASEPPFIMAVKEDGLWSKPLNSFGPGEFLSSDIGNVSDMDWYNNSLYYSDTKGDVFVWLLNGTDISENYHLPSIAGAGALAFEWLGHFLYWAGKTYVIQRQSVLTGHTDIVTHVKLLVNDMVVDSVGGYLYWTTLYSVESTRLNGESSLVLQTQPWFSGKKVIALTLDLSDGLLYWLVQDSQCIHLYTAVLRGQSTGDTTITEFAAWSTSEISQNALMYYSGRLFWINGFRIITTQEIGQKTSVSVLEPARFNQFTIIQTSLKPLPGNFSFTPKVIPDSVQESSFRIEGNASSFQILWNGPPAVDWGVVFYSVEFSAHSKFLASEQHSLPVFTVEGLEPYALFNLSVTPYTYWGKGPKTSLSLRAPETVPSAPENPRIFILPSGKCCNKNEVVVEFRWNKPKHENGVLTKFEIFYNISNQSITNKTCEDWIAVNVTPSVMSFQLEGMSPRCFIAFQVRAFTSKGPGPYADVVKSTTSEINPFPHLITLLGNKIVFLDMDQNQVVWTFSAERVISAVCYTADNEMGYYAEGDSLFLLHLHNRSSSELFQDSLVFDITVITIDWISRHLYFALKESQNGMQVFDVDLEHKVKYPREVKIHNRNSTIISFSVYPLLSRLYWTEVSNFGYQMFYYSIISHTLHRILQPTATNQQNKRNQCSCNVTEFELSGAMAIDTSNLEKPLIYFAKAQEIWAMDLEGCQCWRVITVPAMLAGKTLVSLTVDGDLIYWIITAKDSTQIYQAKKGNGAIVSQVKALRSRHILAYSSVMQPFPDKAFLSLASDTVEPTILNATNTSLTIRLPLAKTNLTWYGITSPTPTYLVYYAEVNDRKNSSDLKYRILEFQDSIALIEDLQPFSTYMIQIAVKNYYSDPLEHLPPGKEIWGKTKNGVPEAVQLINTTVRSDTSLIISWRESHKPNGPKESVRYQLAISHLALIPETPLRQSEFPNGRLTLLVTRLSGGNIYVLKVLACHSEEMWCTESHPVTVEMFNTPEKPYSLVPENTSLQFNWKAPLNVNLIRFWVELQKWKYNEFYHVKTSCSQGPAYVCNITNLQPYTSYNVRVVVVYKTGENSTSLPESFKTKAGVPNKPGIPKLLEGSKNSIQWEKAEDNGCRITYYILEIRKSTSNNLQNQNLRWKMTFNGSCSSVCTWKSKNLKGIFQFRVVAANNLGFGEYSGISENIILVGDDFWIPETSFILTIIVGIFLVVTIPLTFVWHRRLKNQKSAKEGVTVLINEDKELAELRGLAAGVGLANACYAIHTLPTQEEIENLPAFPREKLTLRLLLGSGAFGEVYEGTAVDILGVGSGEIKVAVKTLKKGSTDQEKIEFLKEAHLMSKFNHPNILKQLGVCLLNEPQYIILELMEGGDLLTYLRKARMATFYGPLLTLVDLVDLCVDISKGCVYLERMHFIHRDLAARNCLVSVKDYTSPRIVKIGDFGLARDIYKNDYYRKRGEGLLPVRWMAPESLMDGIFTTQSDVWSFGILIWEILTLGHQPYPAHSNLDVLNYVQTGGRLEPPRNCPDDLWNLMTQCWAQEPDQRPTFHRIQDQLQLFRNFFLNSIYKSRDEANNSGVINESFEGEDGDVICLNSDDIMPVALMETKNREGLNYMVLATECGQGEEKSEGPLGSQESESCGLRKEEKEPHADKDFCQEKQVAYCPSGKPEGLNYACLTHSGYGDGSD
T2 sequence (Q9UM73 whole entry, change not shown, the tested form may be a part): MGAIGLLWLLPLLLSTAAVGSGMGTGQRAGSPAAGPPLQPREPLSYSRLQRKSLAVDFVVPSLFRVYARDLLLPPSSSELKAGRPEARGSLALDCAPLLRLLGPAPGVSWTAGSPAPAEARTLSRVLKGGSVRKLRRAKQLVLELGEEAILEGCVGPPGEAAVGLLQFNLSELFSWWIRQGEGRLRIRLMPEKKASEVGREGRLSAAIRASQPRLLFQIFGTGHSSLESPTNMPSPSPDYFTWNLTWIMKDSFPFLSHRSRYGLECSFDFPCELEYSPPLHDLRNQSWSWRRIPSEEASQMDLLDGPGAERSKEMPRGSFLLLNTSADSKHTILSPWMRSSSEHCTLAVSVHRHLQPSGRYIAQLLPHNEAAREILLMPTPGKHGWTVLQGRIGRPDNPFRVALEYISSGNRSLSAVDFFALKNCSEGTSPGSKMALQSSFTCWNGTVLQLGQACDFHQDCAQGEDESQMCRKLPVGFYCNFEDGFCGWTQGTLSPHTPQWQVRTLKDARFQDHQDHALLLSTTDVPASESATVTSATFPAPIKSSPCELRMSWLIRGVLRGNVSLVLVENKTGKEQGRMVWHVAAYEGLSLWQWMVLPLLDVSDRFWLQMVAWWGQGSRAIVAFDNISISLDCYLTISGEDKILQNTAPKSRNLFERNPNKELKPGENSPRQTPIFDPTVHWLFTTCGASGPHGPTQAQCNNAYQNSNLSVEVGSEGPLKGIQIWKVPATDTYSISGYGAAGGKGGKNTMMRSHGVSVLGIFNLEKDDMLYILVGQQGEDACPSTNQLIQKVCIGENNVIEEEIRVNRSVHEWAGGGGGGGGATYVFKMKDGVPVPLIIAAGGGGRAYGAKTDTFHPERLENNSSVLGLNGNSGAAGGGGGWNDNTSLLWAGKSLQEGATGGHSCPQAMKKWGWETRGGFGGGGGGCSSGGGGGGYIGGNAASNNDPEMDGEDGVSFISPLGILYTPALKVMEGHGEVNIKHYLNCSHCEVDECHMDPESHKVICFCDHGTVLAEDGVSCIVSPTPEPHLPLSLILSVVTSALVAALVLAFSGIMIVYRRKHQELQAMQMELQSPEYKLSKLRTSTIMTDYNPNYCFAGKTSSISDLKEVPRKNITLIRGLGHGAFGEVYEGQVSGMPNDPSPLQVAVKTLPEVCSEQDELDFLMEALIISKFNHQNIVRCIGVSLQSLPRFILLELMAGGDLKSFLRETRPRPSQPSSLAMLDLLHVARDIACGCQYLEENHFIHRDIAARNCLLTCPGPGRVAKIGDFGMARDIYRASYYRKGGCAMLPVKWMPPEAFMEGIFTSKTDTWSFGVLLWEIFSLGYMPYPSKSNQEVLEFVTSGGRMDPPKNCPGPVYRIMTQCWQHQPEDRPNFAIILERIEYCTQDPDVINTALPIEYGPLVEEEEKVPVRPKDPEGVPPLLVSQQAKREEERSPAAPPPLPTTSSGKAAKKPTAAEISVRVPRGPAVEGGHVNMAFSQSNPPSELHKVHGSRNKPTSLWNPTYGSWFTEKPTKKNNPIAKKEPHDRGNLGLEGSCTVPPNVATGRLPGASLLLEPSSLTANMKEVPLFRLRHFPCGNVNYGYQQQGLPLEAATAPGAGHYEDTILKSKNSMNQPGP

Row | GI50 [1] | GI50 [2] | IC50 [3] | SMILES | IC50 [4] | IC50 [5]
1 | 0.2 nM | 151 nM | 144 nM | CC[C@H]1CNC(=O)c2cnn3ccc(nc23)N[C@H](CC)c2cc(F)ccc2O1 [Compound 20, (7S,13R)-7,13-diethyl-11-fluoro-6,7,13,14-tetrahydro-1,15-ethenopyrazolo[4,3-f][1,4,8,10]benzoxatriazacyclotridecin-4(5H)-one] | 3 nM | 404 nM
2 | 45.2 nM | 6790 nM | 8030 nM | CC[C@H]1COc2ccc(F)cc2[C@@H](CC)Nc2ccn3ncc(c3n2)C(=O)N1 [Compound 21, (6S,13R)-6,13-diethyl-11-fluoro-6,7,13,14-tetrahydro-1,15-ethenopyrazolo[4,3-f][1,4,8,10]benzoxatriazacyclotridecin-4(5H)-one] | 3 nM | 1130 nM
3 | 1000 nM | > 10000 nM | 352 nM | O=C1NCCOc2ccc(F)cc2[C@@H](CCO)Nc2ccn3ncc1c3n2 [Compound 22, (13R)-11-fluoro-13-(2-hydroxyethyl)-6,7,13,14-tetrahydro-1,15-ethenopyrazolo[4,3-f][1,4,8,10]benzoxatriazacyclotridecin-4(5H)-one] | 22 nM | 854 nM
4 | 8 nM | 475 nM | 264 nM | CC(C)(O)[C@H]1Nc2ccn3ncc(c3n2)C(=O)NCCOc2ccc(F)cc21 [Compound 24, (13S)-11-fluoro-13-(2-hydroxypropan-2-yl)-6,7,13,14-tetrahydro-1,15-ethenopyrazolo[4,3-f][1,4,8,10]benzoxatriazacyclotridecin-4(5H)-one] | 5 nM | 1320 nM
